Here are results for four compounds from patent US12415832B2, “B-catenin/B-cell Lymphoma 9 protein-protein interaction inhibiting peptidomimetics” (University of South Florida, priority 2019, dated 2025).

One assay concerns SW480 cell. The class given is cell-based. The settings on record: 72 h. Here is the method: Colorectal cancer cell lines SW480 were seeded in 96-well plates at 5×10^3 cells/well, maintained overnight at 37° C., and incubated in the presence of inhibitors at various concentrations. Cell viability was monitored after 72 h using a freshly prepared mixture of one-part phenazine methosulfate (PMS, Sigma) solution (0.92 mg/mL) and 19 parts MTs agent (3-(4,5-dimethylthiazol-2-yl)-5-(3-carboxymethoxyphenyl)-2-(4-sulfophenyl)-2H-tetrazolium, inner salt, Promega) solution (2 mg/mL). Cells were incubated in 10 μL of this solution at 37° C. for 3 h, and A490 was measured. The effect of each compound is expressed as the concentration required to reduce A490 by 50% (IC50) relative to vehicle-treated cells. Experiments were performed in triplicate and repeated for three times.

Another assay has as its target T1, β-catenin (Homo sapiens, UniProt P35222).
T1 sequence (P35222 1-781): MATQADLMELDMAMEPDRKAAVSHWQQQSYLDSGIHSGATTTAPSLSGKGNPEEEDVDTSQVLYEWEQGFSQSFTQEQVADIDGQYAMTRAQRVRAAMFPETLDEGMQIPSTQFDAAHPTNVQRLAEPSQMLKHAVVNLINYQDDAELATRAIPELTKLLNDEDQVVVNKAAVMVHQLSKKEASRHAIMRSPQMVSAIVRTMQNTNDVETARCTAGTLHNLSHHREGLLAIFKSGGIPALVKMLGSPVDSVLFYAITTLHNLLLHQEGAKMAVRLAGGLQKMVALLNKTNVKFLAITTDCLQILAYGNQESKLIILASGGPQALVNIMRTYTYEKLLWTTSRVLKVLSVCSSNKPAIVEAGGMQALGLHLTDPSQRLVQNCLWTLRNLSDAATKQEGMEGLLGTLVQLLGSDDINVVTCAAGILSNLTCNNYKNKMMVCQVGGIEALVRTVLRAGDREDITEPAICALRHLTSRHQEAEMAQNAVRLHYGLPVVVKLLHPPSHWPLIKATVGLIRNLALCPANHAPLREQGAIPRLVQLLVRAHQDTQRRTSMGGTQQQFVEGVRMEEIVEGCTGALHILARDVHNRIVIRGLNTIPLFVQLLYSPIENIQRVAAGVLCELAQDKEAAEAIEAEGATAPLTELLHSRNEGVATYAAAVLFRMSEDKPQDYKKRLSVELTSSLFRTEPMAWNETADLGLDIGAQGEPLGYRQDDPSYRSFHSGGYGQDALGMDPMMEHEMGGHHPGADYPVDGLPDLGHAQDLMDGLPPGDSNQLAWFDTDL
In words: FP assay, binding of peptides with β-catenin (Kd). The settings on record: for Kd: fluorescence polarization, 50 nM FITC labeled peptide, 1×PBS; for decrease in binding affinity relative to 2: Ala substitution. A general note: In fluorescence polarisation assays a small probe gives low polarisation when free and higher when bound to something large.

Assay [1] deals with Wnt/β-catenin signaling transactivation (TOPFlash). In words: Wnt-responsive TOPFlash luciferase reporter assay in SW480 cells. Conditions: for IC50: read-out: TOPFlash luciferase IC50 (estimated), 24 h.
Description: Wnt-specific TOPFlash/FOPFlash luciferase reporter assays were used to evaluate the effects of these compounds on β-catenin-dependent transcription. For the TOPFlash reporter construct, the firefly luciferase reporter gene was placed downstream of three wild-type Tcf binding sites. For the FOPFlash reporter construct, the firefly luciferase reporter gene was place downstream of three mutant Tcf binding sites. The high expression of firefly luciferase in TOPFlash assays was controlled by tandem Tcf binding sites. The renilla luciferase reporter construct (pCMV-RL) was used as the internal control to normalize luciferase reporter signals and eliminate systematic errors such as cell viability, transfection effect, etc.
SW480 cells were co-transfected with 60 ng of the TOPFlash or FOPFlash firefly luciferase reporter gene and 40 ng of renilla luciferase pCMV-RL normalization reporter. Cells were cultured in DMEM and 10% FBS at 37° C. for 24 h, and different concentrations of inhibitors or DMSO were added. After 24 h, the luciferase reporter activity was measured using the Dual-Glo system (E2940, Promega). Normalized luciferase activity in response to the treatment with inhibitors was compared with that obtained from the cells treated with DMSO. Experiments were performed in triplicate.
The test system of another assay is A549 cell. The class given is cell-based. Conditions: 72 h.
Assay [2] addresses T2, β-catenin/BCL9 PPI (Homo sapiens, UniProt P35222).
T2 construct: 40 nM His6-tagged FL-β-catenin
T2 sequence (P35222 1-781): T1 sequence (P35222 1-781)
In words: AlphaScreen competitive inhibition assay of β-catenin/BCL9 PPI. The class given is binding. The settings on record: AlphaScreen, mean ± SD; for IC50: 5 nM biotinylated BCL9, 40 nM His6-tagged FL-β-catenin; for Ki: Ki derived from IC50 by method of Nikolovska-Coleska et al. The procedure: For the competitive inhibition assays of β-catenin/BCL9 PPI, the negative control (equivalent to 0% inhibition) refers to 5.0 nM biotinylated BCL9, 40 nM His6-tagged FL-β-catenin, and 10 μg/mL of donor and acceptor beads in a final volume of 25 μL of assay buffer, but no tested inhibitor present. The positive control (equivalent to 100% inhibition) refers to 5.0 nM biotinylated BCL9 and 10 μg/mL of donor and acceptor beads in a final volume of 25 μL of assay buffer. For the β-catenin/BCL9 assay, 5 nM biotinylated BCL9 and 40 nM His6-tagged FL-β-catenin were incubated in assay buffer at 4° C. for 30 min. Different concentrations of the tested inhibitor were added and incubated in 20 μL of assay buffer at 4° C. for another 1 h. All of the above assay plates were covered and gently mixed on an orbital shaker. The donor and acceptor beads were then added to the plates to a final concentration of 10 μg/mL in 25 μL of assay buffer. The mixture was incubated for 1 h at 4° C. before detection. The IC50 value was determined by nonlinear least-squares analysis of GraphPad Prism 5.0. The Ki values were derived from the IC50 values using a method reported by Nikolovska-Coleska et al. The assays were conducted under the conditions reported by Nikolovska-Coleska et al.'s equation for determining the Ki values. All of the experiments were performed in triplicate. The results were expressed as mean±standard deviation.

Assay [3] deals with β-catenin/BCL9 PPI. In words: Co-immunoprecipitation in HCT116 cells. The class given is cell-based. Conditions: 24 h. Here is the method: β-Catenin signaling hyperactive HCT116 cancer cells at […] were treated with different concentrations of the inhibitor for 24 h. Cells were then lysed in buffer containing 50 mM Tris, pH 7.4, 150 mM NaCl, 1% Nonidet […], 2 mM EDTA, and protease inhibitors. The cell lysates were then preadsorbed to A/G plus agarose (sc-2003, Santa Cruz Biotechnology) at 4° C. for 1 h. Preadsorbed lysates were incubated with a specific primary antibody against […] (610153, BD Biosciences) overnight at 4° C. A/G plus agarose was then added to the lysate mixture and incubated for 3 h. The beads were washed four times with the lysis buffer at 4° C. The bound protein was eluted by boiling in the SDS sample buffer and loaded onto 8% SDS polyacrylamide gel for electrophoretic analysis. Separated proteins were transferred onto nitrocellulose membranes for immunoblot analysis. The antibodies against BCL9 (ab37305, Abcam), β-catenin (610153, BD Biosciences), and […] (sc-55529, Santa Cruz Biotechnology, Inc.) were incubated with the membranes, respectively. IRDye 680LT goat anti mouse IgG (827-11080, LiCOR) and IRDye 800CW goat anti rabbit IgG (926-32211, LiCOR) were used as the secondary antibodies. The images were detected by the Odyssey Infrared Imaging System (LiCOR). Experiments were performed in duplicate.

Where two headings read alike, the source gives them in different places. Where only a bound is given, the exact number is not on record here.

On to `CCC(C)[C@@H](CN(CC(=O)N[C@@H](CC(C)C)CN(CC(=O)N[C@@H](CC(C)C)CN(CC(N)=O)S(=O)(=O)Cc1ccccc1)S(=O)(=O)CC(C)C)S(C)(=O)=O)NC(=O)CN(C[C@H](CCCNC(=N)N)NC(=O)CN(C[C@H](CC(C)C)NC(=O)CN(C[C@@H](NC(=O)CN(C[C@H](CC(C)C)NC(=O)CN(C[C@H](CCCNC(=N)N)NC(=O)CN(C[C@H](CCCNC(=N)N)NC(=O)CN(C[C@H](CCC(=O)O)NC(C)=O)S(=O)(=O)CCN)S(C)(=O)=O)S(C)(=O)=O)S(=O)(=O)CCN)C(C)O)S(=O)(=O)CC(C)C)S(=O)(=O)CCN)S(=O)(=O)CC(C)C` (stereo partly drawn) [Peptide 2], for which the IC50 (usually the concentration that inhibits the measured activity by half) with SW480 cell was 12.5 ± 2.86 µM; in assay [1], 35.4 µM; in the assay on A549 cell, 39.9 ± 4.75 µM; on β-catenin/BCL9 PPI [2], 0.74 µM. Besides, on β-catenin, the affinity, expressed as Kd, was 0.43 µM. Moreover, the Ki (as a rule, a measure of affinity in units of concentration, obtained from inhibition or displacement) at β-catenin/BCL9 PPI [2] was 0.64 µM.

Turning to `CCC(C)[C@@H](CN(CC(=O)N[C@@H](CC(C)C)CN(CC(=O)N[C@@H](CC(C)C)CN(CC(N)=O)S(=O)(=O)Cc1ccccc1)S(=O)(=O)CC(C)C)S(C)(=O)=O)NC(=O)CN(C[C@H](CCCNC(=N)N)NC(=O)CN(C[C@H](CC(C)C)NC(=O)CN(C[C@@H](NC(=O)CN(C[C@H](CC(C)C)NC(=O)CN(C[C@H](CCCNC(=N)N)NC(=O)CN(C[C@H](CCCNC(=N)N)NC(=O)CN(C[C@H](CCC(=O)O)NC(C)=O)S(C)(=O)=O)S(C)(=O)=O)S(C)(=O)=O)S(=O)(=O)CCN)C(C)O)S(=O)(=O)CC(C)C)S(=O)(=O)CCN)S(=O)(=O)CC(C)C` (stereo partly drawn) [Peptide 3], the IC50 in the assay with SW480 cell was 12.8 ± 2.9 µM; in assay [1] it was 26.5 µM; in the assay with A549 cell, 43.7 ± 3.62 µM; on β-catenin/BCL9 PPI [2] it was 1.04 ± 0.21 µM. Moreover, the “decrease in binding affinity relative to 2” value on β-catenin was “about 1.5 fold”. Binding at β-catenin was characterised by a dissociation constant (Kd) of 0.86 µM. At β-catenin/BCL9 PPI [2], this compound showed a Ki of 0.92 ± 0.17 µM.

As for `CCC(C)[C@@H](CN(CC(=O)N[C@@H](CC(C)C)CN(CC(=O)N[C@@H](CC(C)C)CN(CC(N)=O)S(=O)(=O)Cc1ccccc1)S(=O)(=O)CC(C)C)S(C)(=O)=O)NC(=O)CN(C[C@H](CCCNC(=N)N)NC(=O)CN(C[C@H](CC(C)C)NC(=O)CN(C[C@@H](NC(=O)CN(C[C@H](CC(C)C)NC(=O)CN(C[C@H](CCCNC(=N)N)NC(=O)CN(C[C@H](C)NC(=O)CN(C[C@H](CCC(=O)O)NC(C)=O)S(=O)(=O)CCN)S(C)(=O)=O)S(C)(=O)=O)S(=O)(=O)CCN)C(C)O)S(=O)(=O)CC(C)C)S(=O)(=O)CCN)S(=O)(=O)CC(C)C` (stereo partly drawn) [Peptide 4], the IC50 is 16.4 ± 4.4 µM in the assay with SW480 cell, 20.6 µM in assay [1], 43.2 ± 5.6 µM in the assay on A549 cell and 1.1 ± 0.14 µM on β-catenin/BCL9 PPI [2]. Moreover, on β-catenin, the “decrease in binding affinity relative to 2” value is given as “about 1.5 fold”. Also, the Kd (usually the equilibrium constant for the complex coming apart) on β-catenin is 0.82 µM. The “disruption of β-catenin/BCL9 PPI in cells (co-IP)” value with β-catenin/BCL9 PPI [3] is “disrupted the β-catenin/BCL9 PPI in a dose-dependent manner”. On β-catenin/BCL9 PPI [2], this compound displayed a Ki of 0.98 ± 0.11 µM.

As for “Ac-SQEQLEHRERSLQTLRDIQRMLF-NH2 [Peptide 1, reference compound]”, the IC50 was more than 200 µM with SW480 cell (SW480 cell, hyperactive β-catenin signaling, read-out: MTS IC50 ± SD); more than 200 µM in the assay on A549 cell; 1.28 µM on β-catenin/BCL9 PPI [2]. This compound displayed a dissociation constant Kd on β-catenin of 0.97 µM. Besides, the “TOPFlash luciferase activity, result in words” value in assay [1] is given as “did not show any activity”. For the same compound, on β-catenin/BCL9 PPI [2], the Ki was found to be 1.13 µM.
